The target of data set [1] is T1, VLA-4 (α4β1 integrin) (Homo sapiens, UniProt P05556+P13612).
T1 construct: Ramos cells bearing cell-surface VLA-4; endogenous in cells; host or cells: Ramos cells
Put plainly: VLA-4/VCAM-1 Screening Assay (solid-phase dual antibody ELISA). Conditions: Ramos cell-derived VLA-4 binding to immobilized recombinant human VCAM-1. How it is done: VLA-4/VCAM-1 Screening Assay
VLA-4 antagonist activity, defined as ability to compete for binding to immobilized VCAM-1, was quantitated using a solid-phase, dual antibody ELISA. VLA-4 (α4β1 integrin) bound to VCAM-1 was detected by a complex of anti-integrin β1 antibody: HRP-conjugated anti-mouse IgG: chromogenic substrate (K-Blue). Initially, this entailed coating 96 well plates (Nunc Maxisorp) with recombinant human VCAM-1 (0.4 μg in 100 μl PBS), sealing each plate and then allowing the plates to stand at 4° C. for ˜18 hr. […] On the day of assay, all plates were washed twice with VCAM Assay Buffer (200 μl/well of 50 mM Tris-HCl, 100 mM NaCl, 1 mM MnCl2, 0.05% Tween 20; pH 7.4). Test compounds were dissolved in 100% DMSO and then diluted 1:20 in VCAM Assay Buffer supplemented with 1 mg/mL BSA (i.e., final DMSO=5%). A series of 1:4 dilutions were performed to achieve a concentration range of 0.005 nM-1.563 μM for each test compound. 100 μl per well of each dilution was added to the VCAM-coated plates, followed by 10 μl of Ramos cell-derived VLA-4. These plates were sequentially mixed on a platform shaker for 1 min, incubated for 2 hr at 37° C., and then washed four times with 200 μl/well VCAM Assay Buffer. 100 μl of mouse anti-human integrin β1 antibody was added to each well (0.6 μg/mL in VCAM Assay Buffer+1 mg/mL BSA) and allowed to incubate for 1 hr at 37° C. At the conclusion of this incubation period, all plates were washed four times with VCAM Assay Buffer (200 μl/well). A corresponding second antibody, HRP-conjugated goat anti-mouse IgG (100 μl per well @ 1:800 dilution in VCAM Assay Buffer+1 mg/mL BSA), was then added to each well, followed by a 1 hr incubation at room temperature and concluded by three washes (200 μl/well) with VCAM Assay Buffer. Color development was initiated by addition of 100 μl K-Blue per well (15 min incubation, room temp) and terminated by addition of 100 μl Red Stop Buffer per well. All plates were then read in a UV/Vis spectrophotometer at […]. Results were calculated as % inhibition of total binding (i.e., VLA-4+VCAM-1 in the absence of test compound). The results are provided in the following Table I (A=IC50<1 nM, B=IC50<10 nM): […]
On the technique in general: ELISA stands for enzyme-linked immunosorbent assay.

Data set [2] concerns the target T1, VLA-4 (α4β1 integrin). The data set can be described thus: Ramos (VLA-4)/VCAM-1 Cell-Based Screening Assay (cell adhesion). Conditions: Calcein-AM labeled Ramos cells adhering to immobilized recombinant human VCAM-1. How it is done:
Ramos (VLA-4)/VCAM-1 Cell-Based Screening Assay Protocol
Soluble recombinant human VCAM-1 (mixture of 5- and 7-Ig domain) was purified from CHO cell culture media by inmmunoaffinity chromatography and maintained in a solution containing 0.1 M Tris-glycine (pH 7.5), 0.1 M NaCl, 5 mM EDTA, 1 mM PMSF, […] NaN3 and 10 μg/mL leupeptin. Calcein-AM was purchased from Molecular Probes Inc.
VLA-4 (α4β1 integrin) antagonist activity, defined as ability to compete with cell-surface VLA-4 for binding to immobilized VCAM-1, was quantitated using a Ramos-VCAM-1 cell adhesion assay. Ramos cells bearing cell-surface VLA-4, were labeled with a fluorescent dye (Calcein-AM) and allowed to bind VCAM-1 in the presence or absence of test compounds. A reduction in fluorescence intensity associated with adherent cells (% inhibition) reflected competitive inhibition of VLA-4 mediated cell adhesion by the test compound.
Initially, this entailed coating 96 well plates (Nunc Maxisorp) with recombinant human VCAM-1 (100 ng in 100 μl PBS), sealing each plate and allowing the plates to stand at 4° C. for ≈18 hr. The VCAM-coated plates were subsequently washed twice with 0.05% Tween-20 in PBS, and then blocked for 1 hr (room temperature) with 200 μl of Blocking Buffer (1% BSA/0.02% thimerosal) to reduce non-specific binding. Following the incubation with Blocking Buffer, plates were inverted, blotted and the remaining buffer aspirated. Each plate was then washed with 300 μl PBS, inverted and the remaining PBS aspirated.
Test compounds were dissolved in 100% DMSO and then diluted 1:25 in VCAM Cell Adhesion Assay Buffer (4 mM CaCl2, 4 mM MgCl2 in 50 mM TRIS-HCl, pH 7.5) (final DMSO=4%). A series of eight 1:4 dilutions were performed for each compound (general concentration range of 1 nM-12,500 nM). 100 μl/well of each dilution was added to the VCAM-coated plates, followed by 100 μl of Ramos cells (200,000 cells/well in 1% BSA/PBS). Plates containing test compounds and Ramos cells were allowed to incubate for 45 min at room temperature, after which 165 μl/well PBS was added. Plates were inverted to remove non-adherent cells, blotted and 300 μl/well PBS added. Plates were again inverted, blotted and the remaining buffer gently aspirated. 100 μl Lysis Buffer (0.1% SDS in 50 mM TRIS-HCl, pH 8.5) was added to each well and agitated for 2 min on a rotary shaking platform. The plates were then read for fluorescence intensity on a Cytofluor 2300 (Millipore) fluorecence measurement system (excitation=485 nm, emission=530 nm). The results are shown in the following Table II, where (A=IC50<100 nM, B=IC50<10000 nM): […]

T1 sequence (P13612 34-1032): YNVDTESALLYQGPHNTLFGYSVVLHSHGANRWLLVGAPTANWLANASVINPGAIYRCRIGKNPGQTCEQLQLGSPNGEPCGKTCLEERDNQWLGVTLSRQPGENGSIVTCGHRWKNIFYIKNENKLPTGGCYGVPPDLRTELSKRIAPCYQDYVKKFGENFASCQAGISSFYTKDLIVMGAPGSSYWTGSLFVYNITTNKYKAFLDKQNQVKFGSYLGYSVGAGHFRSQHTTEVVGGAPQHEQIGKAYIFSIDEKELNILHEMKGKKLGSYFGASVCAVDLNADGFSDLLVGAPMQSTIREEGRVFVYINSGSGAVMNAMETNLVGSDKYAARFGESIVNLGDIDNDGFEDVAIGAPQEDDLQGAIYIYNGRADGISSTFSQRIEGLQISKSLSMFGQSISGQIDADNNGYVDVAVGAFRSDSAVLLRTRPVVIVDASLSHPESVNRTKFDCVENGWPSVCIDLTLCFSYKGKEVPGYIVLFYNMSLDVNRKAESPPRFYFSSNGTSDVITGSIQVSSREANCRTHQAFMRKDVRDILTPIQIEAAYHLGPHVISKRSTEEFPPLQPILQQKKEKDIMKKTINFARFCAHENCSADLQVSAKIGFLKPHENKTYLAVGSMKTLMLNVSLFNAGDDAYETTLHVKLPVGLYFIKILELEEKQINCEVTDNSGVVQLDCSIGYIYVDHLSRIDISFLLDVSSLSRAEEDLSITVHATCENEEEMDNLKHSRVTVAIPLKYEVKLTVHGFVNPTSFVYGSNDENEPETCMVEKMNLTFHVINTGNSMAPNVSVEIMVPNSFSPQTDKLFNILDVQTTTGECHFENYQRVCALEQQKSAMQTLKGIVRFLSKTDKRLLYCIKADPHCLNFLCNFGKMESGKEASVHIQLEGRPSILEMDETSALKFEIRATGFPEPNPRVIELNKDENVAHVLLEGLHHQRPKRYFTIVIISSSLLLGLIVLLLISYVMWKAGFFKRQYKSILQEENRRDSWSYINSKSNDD
T1 sequence (P05556 21-798): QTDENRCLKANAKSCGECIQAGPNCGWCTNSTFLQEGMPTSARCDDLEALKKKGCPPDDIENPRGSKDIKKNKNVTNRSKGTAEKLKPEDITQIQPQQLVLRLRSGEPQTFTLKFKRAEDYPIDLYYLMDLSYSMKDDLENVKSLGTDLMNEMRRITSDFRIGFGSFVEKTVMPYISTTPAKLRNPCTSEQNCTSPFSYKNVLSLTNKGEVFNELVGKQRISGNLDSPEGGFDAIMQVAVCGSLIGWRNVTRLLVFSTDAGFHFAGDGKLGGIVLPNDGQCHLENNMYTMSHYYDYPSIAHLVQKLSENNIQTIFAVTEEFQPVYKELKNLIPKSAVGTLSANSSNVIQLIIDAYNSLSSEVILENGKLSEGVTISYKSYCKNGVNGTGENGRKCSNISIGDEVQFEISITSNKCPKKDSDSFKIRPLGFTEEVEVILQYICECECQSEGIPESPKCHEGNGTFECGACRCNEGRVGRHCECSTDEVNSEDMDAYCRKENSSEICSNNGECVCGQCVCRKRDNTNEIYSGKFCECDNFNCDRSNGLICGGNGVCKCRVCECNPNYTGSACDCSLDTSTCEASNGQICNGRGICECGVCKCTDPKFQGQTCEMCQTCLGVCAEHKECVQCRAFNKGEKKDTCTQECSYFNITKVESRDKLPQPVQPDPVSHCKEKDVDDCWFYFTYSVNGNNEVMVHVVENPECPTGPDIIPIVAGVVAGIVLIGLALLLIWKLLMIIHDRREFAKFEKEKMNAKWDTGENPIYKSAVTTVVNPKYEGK

Usually IC50 stands for the point on the concentration scale where inhibition reaches its midpoint. Usually melting point stands for the temperature, or range, at which the solid turns liquid. For `Cc1cccc(Cl)c1C(=O)N[C@@H](Cc1ccc(-c2cn(C)c(=O)n(C)c2=O)cc1)C(=O)O` [Example 2, N-[(2-chloro-6-methylphenyl)carbonyl]-4-(1,3-dimethyl-2,4-dioxo-5-pyrimidinyl)-L-phenylalanine], the melting point fell in the range of 234 to 236 °C. Also, the 50% inhibitory concentration (IC50) at VLA-4 (α4β1 integrin) [1] is < 1 nM. For the same molecule, the IC50 at VLA-4 (α4β1 integrin) [2] was < 100 nM.

With `COCCC1(C(=O)N[C@@H](Cc2ccc(-c3cn(C)c(=O)n(C)c3=O)cc2)C(=O)O)CCCC1` [Example 3, 4-[(1,3-dimethyl-2,4-dioxo-5-pyrimidinyl)]-N-[[1-(2-methoxyethyl)cyclopentyl]carbonyl]-L-phenylalanine], the values for the IC50 at VLA-4 (α4β1 integrin) [1] and on VLA-4 (α4β1 integrin) [2] were < 10 nM and < 100 nM, respectively.

Turning to `Cc1cccc(Br)c1C(=O)N[C@@H](Cc1ccc(-c2cn(C)c(=O)n(C)c2=O)cc1)C(=O)O` [Example 4, N-[(2-bromo-6-methylphenyl)carbonyl]-4-(1,3-dimethyl-2,4-dioxo-5-pyrimidinyl)-L-phenylalanine], the half-inhibitory concentration (IC50) on VLA-4 (α4β1 integrin) [1] was < 1 nM; on VLA-4 (α4β1 integrin) [2] it was < 100 nM.

With `COc1ccc(Br)c(C(=O)N[C@@H](Cc2ccc(-c3cn(C)c(=O)n(C)c3=O)cc2)C(=O)O)c1` [Example 5, N-[(2-bromo-5-methoxyphenyl)carbonyl]-4-[1,3-dimethyl-2,4-dioxo-5-pyrimidinyl]-L-phenylalanine], the IC50 at VLA-4 (α4β1 integrin) [1] is < 1 nM; on VLA-4 (α4β1 integrin) [2], < 10000 nM.

`Cc1c(-c2ccc(C[C@H](NC(=O)c3c(Cl)cccc3C(C)C)C(=O)O)cc2)c(=O)n(C)c(=O)n1C` [Example 17, N-[[2-chloro-6-(2-methylethyl)phenyl]carbonyl]-4-(1,3,6-trimethyl-2,4-dioxo-5-pyrimidinyl)-L-phenylalanine] registered a melting point of 205 to 209 °C.

In the case of `CCN(CC)CCOC(=O)[C@H](Cc1ccc(-c2c(C)n(C)c(=O)n(C)c2=O)cc1)NC(=O)c1c(Cl)cccc1Cl` [Example 28, N-[(2,6-dichlorophenyl)carbonyl]-4-(1,3,6-trimethyl-2,4-dioxo-5-pyrimidinyl)-L-phenylalanine 2-[(N,N-diethyl)amino]ethyl ester], the IC50 on VLA-4 (α4β1 integrin) [2] is < 100 nM.

Consider `CCN(CC)CCOC(=O)[C@H](Cc1ccc(-c2c(C)n(C)c(=O)n(C)c2=O)cc1)NC(=O)c1c(C)cccc1Cl` [Example 29, N-[(2-chloro-6-methylphenyl)carbonyl]-4-(1,3,6-trimethyl-2,4-dioxo-5-pyrimidinyl)-L-phenylalanine 2-[(N,N-diethyl)amino]ethyl ester], for which the IC50 at VLA-4 (α4β1 integrin) [2] is < 100 nM.

As for `CCOC(=O)[C@H](Cc1ccc(-c2c(C)n(C)c(=O)n(C)c2=O)cc1)NC(=O)c1c(C)cccc1Cl` [Example 30, N-[(2-chloro-6-methylphenyl)carbonyl]-4-(1,3,6-trimethyl-2,4-dioxo-5-pyrimidinyl)-L-phenylalanine ethyl ester], the concentration for half-maximal inhibition (IC50) on VLA-4 (α4β1 integrin) [2] was < 10000 nM.

`Cc1c(-c2ccc(C[C@H](NC(=O)c3c(Cl)cccc3Cl)C(=O)OCCN3CCOCC3)cc2)c(=O)n(C)c(=O)n1C` [Example 31, N-[(2,6-dichlorophenyl)carbonyl]-4-(1,3,6-trimethyl-2,4-dioxo-5-pyrimidinyl)-L-phenylalanine 2-(4-morpholino)ethyl ester] had a melting point of 90 to 94 °C. Moreover, the IC50 at VLA-4 (α4β1 integrin) [2] was < 10000 nM.

In the case of `Cc1cccc(Cl)c1C(=O)N[C@@H](Cc1ccc(-c2c(C)n(C)c(=O)n(C)c2=O)cc1)C(=O)OCCN1CCOCC1` [Example 32, N-[(2-chloro-6-methylphenyl)carbonyl]-4-(1,3,6-trimethyl-2,4-dioxo-5-pyrimidinyl)-L-phenylalanine 2-(4-morpholino)ethyl ester], the IC50 at VLA-4 (α4β1 integrin) [2] is < 10000 nM.

For `CC(=O)OC(C)OC(=O)[C@H](Cc1ccc(-c2c(C)n(C)c(=O)n(C)c2=O)cc1)NC(=O)c1c(Cl)cccc1Cl` (stereo partly drawn) [Example 33, N-[(2,6-dichlorophenyl)carbonyl]-4-(1,3,6-trimethyl-2,4-dioxo-5-pyrimidinyl)-L-phenylalanine 1-(acetoxy)ethyl ester], the melting point was in the range of 168 to 170 °C. The IC50 on VLA-4 (α4β1 integrin) [2] is < 10000 nM.

For `CC(=O)OC(C)OC(=O)[C@H](Cc1ccc(-c2c(C)n(C)c(=O)n(C)c2=O)cc1)NC(=O)c1c(C)cccc1Cl` (stereo partly drawn) [Example 34, N-[(2-chloro-6-methylphenyl)carbonyl]-4-(1,3,6-trimethyl-2,4-dioxo-5-pyrimidinyl)-L-phenylalanine 1-(acetoxy)ethyl ester], the melting point lay within 84 to 88 °C. The IC50 at VLA-4 (α4β1 integrin) [2] was < 10000 nM.

Turning to `Cc1c(-c2ccc(C[C@H](NC(=O)[C@@H]3CCCN3)C(=O)O)cc2)c(=O)n(C)c(=O)n1C` [Example 35, L-prolyl-4-(1,3,6-trimethyl-2,4-dioxo-5-pyrimidinyl)-L-phenylalanine], on VLA-4 (α4β1 integrin) [2], the IC50 is < 100 nM.

Source of the values: patent US6380387B1, “4-Pyrimidinyl-n-acyl-l phenylalanines” (Hoffmann-La Roche Inc., priority 1999, dated 2002).
